Experimental data taken from patent publication US20240415814A1, “PHARMACEUTICAL COMPOSITION COMPRISING 1-(3-CYANO-1-ISOPROPYL-INDOL-5-YL)PYRAZOLE-4-CARBOXYLIC ACID” (LG CHEM, LTD., priority 2021, published 2024).

Columns and labels:
serum uric acid [1] = experiment: Phase 2 clinical trial (NCT03934099): serum uric acid concentration in gout patients; assay type: in vivo, human; conditions: for patients with serum uric acid concentration <4 mg/dL / patients with serum uric acid concentration <5 mg/dL / patients with serum uric acid concentration <6 mg/dL: febuxostat group 40 mg oral
Experimental: A phase 2 clinical trial was conducted to analyze the dosage, TEAEs, and the like when the compound of Formula 1 (1-(3-cyano-1-isopropyl-indol-5-yl)pyrazol-4-carboxylic acid; compound of Example 1) is administered to a gout patient group.
• 1. Written informed consent (signed and dated) provided voluntarily prior to the start of the study. • 2. Male or female aged from 18 to 75 • 3. History or experience of hyperuricemia and gout in accordance with the criteria of the American College of Rheumatology. • 4. Self-reported history of 2 or more gout flare within 12 months prior to screening visit (Visit 1). • 5. Serum uric acid (sUA) levels at Visit 1 of 6.0 mg/dL or more in subjects who were receiving urate lower therapy (ULT) with allopurinol, febuxostat, probenecid, or lesinurad; and sUA levels at Visit 1 of 8.0 mg/dL or more and 12.0 mg/dL or less in subjects who had no history of receiving the ULT or were not receiving the ULT at visit 1. • 6. sUA levels of 8.0 mg/dL or more and 12.0 mg/dL or less at Visit 3. • 7. Body mass index of 42 kg/m^2 or less at screening visit (Visit 1). • 8. Estimated glomerular filtration rate (eGFR) of 60 mL/min/1.73 m^2 or more at screening visit (Visit 1). • 9. Subjects of childbearing potential with a negative pregnancy test result at screening visit (Visit 1). Subjects (female subjects of childbearing potential and male subjects with partners of childbearing potential) consented to use adequate methods of contraception to avoid pregnancy during the study period. • 10. Able to understand the study procedure and relevant risk, and willing to comply with the visit/protocol schedule.
• 1. Presence of secondary hyperuricemia caused by myeloproliferative disorder, organ transplantation, or the like. • 2. Experience of any active acute gout flare within 3 weeks prior to screening visit (Visit 1). • 3. Aspartate aminotransferase or alanine aminotransferase level exceeds 2 times upper limit of normal (ULN) at screening visit (Visit 1). • 4. Creatine kinase level exceeds 2.5 times ULN at screening visit (Visit 1). • 5. Presence of previous hypersensitivity to colchicine. • 6. Patients who have ever prescribed pegloticase within 3 months prior to screening visit (Visit 1). • 7. If a stable dose of drugs (losartan, fibrate, thiazide diuretics, loop diuretics, and acetylsalicylic acid) known to affect sUA levels has not been administered during the past 6 weeks prior to screening visit (Visit 1), acetylsalicylic acid is not allowed to use 325 mg/day or more. • 8. Patients who have ever received systemic corticosteroids for 10 or more consecutive days within 1 month prior to screening visit (Visit 1). • 9. Presence of need or potential availability of systemic immunosuppressive drugs or immunomodulatory therapies (e.g., azathioprine, 6-mercaptopurine, and cyclosporine) • 10. Patients who have received high or moderate doses of cytochrome P450 3A4 inhibitors or P-glycoprotein inhibitors within 14 days prior to screening visit (Visit 1). • 11. History of xanthinuria. • 12. History of rheumatoid arthritis. • 13. Presence of active peptic ulcer disease requiring treatment. • 14. Presence of unstable angina, New York Heart Association class III or IV heart failure, myocardial infarction, stroke, deep vein thrombosis, percutaneous coronary intervention (with or without stent), or coronary artery bypass graft within the past 12 months prior to screening visit (Visit 1); current administration of anticoagulants; or the presence of clinically significant electrocardiogram abnormalities in the investigator's opinion at screening visit (Visit 1). • 15. Presence of uncontrolled hypertension (systolic blood pressure>160 mmHg or diastolic blood pressure>95 mmHg) at screening visit (Visit 1). • 16. History of myositis/myopathy, rhabdomyolysis, Stevens-Johnson syndrome, or toxic epidermal necrolysis. • 17. […]

serum uric acid [2] = conditions: previous results, gout patients; cited from earlier work
[3] = febuxostat 40 mg, mild renal function impairment, 12 weeks
[4] = febuxostat 40 mg, normal renal function, 12 weeks
[5] = febuxostat 40 mg, one patient in moderate renal function impairment group, 12 weeks

Row | SMILES | patients adjusted to serum uric acid <5.0 mg/dL (serum uric acid [1]; [3]) [%] | patients adjusted to serum uric acid <6.0 mg/dL (serum uric acid [1]; [3]) [%] | patients adjusted to serum uric acid <5.0 mg/dL (serum uric acid [1]; [4]) [%] | patients adjusted to serum uric acid <6.0 mg/dL (serum uric acid [1]; [4]) [%] | adjustment of serum uric acid to <5.0 mg/dL (serum uric acid [1]; [5]) | adjustment of serum uric acid to <6.0 mg/dL (serum uric acid [1]; [5]) | patients with serum uric acid concentration <4 mg/dL (serum uric acid [1]; 12 weeks) | patients with serum uric acid concentration <5 mg/dL (serum uric acid [1]; 12 weeks) | patients with serum uric acid concentration <6 mg/dL (serum uric acid [1]; 12 weeks) | patients with serum uric acid concentration <4 mg/dL (serum uric acid [1]; 12 weeks, listed as febuxostat) [%] | patients with serum uric acid concentration <5 mg/dL (serum uric acid [1]; 12 weeks, listed as febuxostat) [%] | patients with serum uric acid concentration <6 mg/dL (serum uric acid [1]; 12 weeks, listed as febuxostat) [%] | degree of reduction in serum uric acid (serum uric acid [1]; febuxostat group 40 mg, FIG. 3) [%] | patients in the receiving group with serum uric acid concentration of less than 6 mg/dL (serum uric acid [2])
1 | Cc1nc(-c2ccc(OCC(C)C)c(C#N)c2)sc1C(=O)O [Febuxostat, febuxostat, reference compound] | 33 | 67 | 20 | 60 | not adjusted to less than 5.0 mg/dL | not adjusted to less than 6.0 mg/dl | 0% (0/13 people) | 23% (3/13 people) | 54% (7/13 people) | 0 | 23 | 54 | 41.4 | –
2 | Oc1ncnc2[nH]ncc12 [allopurinol] | – | – | – | – | – | – | – | – | – | – | – | – | – | about 40%
